Measurements reported in patent US7547804B2, “Compounds, compositions, and methods employing same” (Myriad Genetics, Inc., priority 2002, dated 2009).

system: LNCaP cell lines; assay: WST-1 Cell Proliferation and Viability Assay; type: cell-based; conditions: Homo sapiens; LNCaP cells, compound incubation 18-72 hours
Protocol: WST-1 Cell Proliferation and Viability Assay
Cell proliferation and cell viability was assessed using the tetrazolium salt WST-1 (Roche Applied Science, Indianapolis Ind.). The assay is based on the cleavage of WST-1 (light red) by mitochondrial dehydrogenase causing the formation of formazan (dark red), which can be measured on an optical density (O.D.) reader. LNCaP cell lines were plated in 96 well tissue culture plates (Corning Costar, N.Y.) at a density of 5000 cells/well in 150 μl complete media phenol-red free (RPMI-1640 [Invitrogen, Carlsbad Calif.] and 10% fetal calf serum). This plate is termed the assay plate. After the cells are plated, they are then incubated overnight at 37 degrees Celsius in a humidified chamber containing 5% CO2 (incubator).
Compounds are added to the assay plate in 50 μl of complete media and 0.4% DMSO (v:v) making the final DMSO concentration 0.1%. The assay plate is then returned to the incubator for 18-72 hours. WST-1 reagent is then added (20 μl/well) and the plate is placed on an ELISA plate shaker for 30 minutes at room temperature. Plates are then transferred back to the incubator for an additional 3 hours. Plates are then read on a 96 well plate O.D. reader at A490-A650.

Row | SMILES | EC50
1 | CC(=O)Nc1cccc(C(=O)Nc2cccc(OCCc3ccccc3)c2)c1O [Compound 2] | 23 µM
2 | O=CNc1cccc(C(=O)Nc2cccc(OCCc3ccccc3)c2)c1O [Compound 5] | 5 µM
3 | CCOc1cc(CNc2cccc(NC(=O)c3cc(Cl)ccc3O)c2)ccc1OCc1ccccc1 [Compound 10] | 14 µM
4 | O=C(Nc1cccc(NCc2ccc3c(c2)OCO3)c1)c1cc(Cl)ccc1O [Compound 11] | 40 µM
5 | COc1ccc(NC(=O)c2cc(Cl)ccc2O)cc1OCCc1ccccc1 [Compound 12] | 13 µM
6 | CC(C)Cc1ccc(CNc2cccc(NC(=O)c3cc(Cl)ccc3O)c2)cc1 [Compound 13] | 18 µM
7 | CC(C)c1ccc(CNc2cccc(NC(=O)c3cc(Cl)ccc3O)c2)cc1 [Compound 14] | 18 µM
8 | CCOc1cc(CNc2cccc(NC(=O)c3cc(Cl)ccc3O)c2)ccc1OC [Compound 20] | 24 µM
9 | O=C(Nc1cc(Cl)ccc1OCCc1ccccc1)c1cc(Cl)ccc1O [Compound 22] | 2 µM
10 | O=C(Nc1cccc([N+](=O)[O-])c1)c1cc(Cl)ccc1O [Compound 23] | 4 µM
11 | O=C(Nc1cc(OCCc2ccccc2)ccc1Cl)c1cc(Cl)ccc1O [Compound 27] | 4 µM
12 | CCN(CC)CCOc1cccc(CNc2cccc(NC(=O)c3cc(Cl)ccc3O)c2)c1 [Compound 30] | 50 µM
13 | O=C(Nc1cc(Cl)ccc1Oc1ccc(Cl)c2ccccc12)c1cc(Cl)ccc1O [Compound 31] | 2 µM
14 | COc1ccccc1CCOc1ccc(Cl)c(NC(=O)c2cc(Cl)ccc2O)c1 [Compound 32] | 6 µM
15 | COc1cccc(CCOc2ccc(Cl)c(NC(=O)c3cc(Cl)ccc3O)c2)c1 [Compound 33] | 3 µM
16 | COc1ccc(CCOc2cccc(NC(=O)c3cc(Cl)ccc3O)c2)cc1OC [Compound 34] | 10 µM
17 | COc1ccc(CCOc2ccc(Cl)c(NC(=O)c3cc(Cl)ccc3O)c2)cc1 [Compound 37] | 3 µM
18 | Cc1ccc(OCCc2ccccc2)cc1NC(=O)c1cc(Cl)ccc1O [Compound 43] | 3 µM
19 | CN(C)c1ccc(CCOc2cccc(NC(=O)c3cc(Cl)ccc3O)c2)cc1 [Compound 47] | 4 µM
20 | Cc1c(NC(=O)c2cc(Cl)ccc2O)cccc1OCCc1ccccc1 [Compound 48] | 7 µM
21 | O=C(NCc1ccc(OCCc2ccccc2)cc1)c1cc(Cl)ccc1O [Compound 53] | 23 µM
22 | O=C(NCCc1ccc(Oc2ccccc2)cc1)c1cc(Cl)ccc1O [Compound 54] | 13 µM
23 | O=C(Nc1cccc(C(F)(F)F)c1)c1cc(Cl)ccc1O [Compound 56] | 1 µM
24 | O=C(Nc1ccccc1C(F)(F)F)c1cc(Cl)ccc1O [Compound 58] | 10 µM
25 | O=C(Nc1ccc(C(F)(F)F)cc1)c1cc(Cl)ccc1O [Compound 61] | 1 µM
26 | Cc1cc(C)c(CCOc2cccc(NC(=O)c3cc(Cl)ccc3O)c2)c(C)c1 [Compound 62] | 4 µM

Row | SMILES | EC50
27 | O=C(NCCc1ccc(OCc2ccccc2)c(OCc2ccccc2)c1)c1cc(Cl)ccc1O [Compound 69] | 14 µM
28 | O=C(Nc1cccc(CNc2ccc(Cl)cc2)c1)c1cc(Cl)ccc1O [Compound 74] | 9 µM
29 | O=C(Nc1cc(Cl)ccc1OCCCc1ccccc1)c1cc(Cl)ccc1O [Compound 75] | 1 µM
30 | Cc1ccccc1CCOc1ccc(Cl)cc1NC(=O)c1cc(Cl)ccc1O [Compound 76] | 1 µM
31 | Cc1cccc(CCOc2ccc(Cl)cc2NC(=O)c2cc(Cl)ccc2O)c1 [Compound 77] | 1 µM
32 | Cc1ccc(CCOc2ccc(Cl)cc2NC(=O)c2cc(Cl)ccc2O)cc1 [Compound 78] | 2 µM
33 | COc1ccc(CCOc2ccc(Cl)cc2NC(=O)c2cc(Cl)ccc2O)cc1 [Compound 79] | 2 µM
34 | Cc1cc(C)c(CCOc2ccc(Cl)cc2NC(=O)c2cc(Cl)ccc2O)c(C)c1 [Compound 81] | 1 µM
35 | O=C(Nc1cc(Cl)ccc1OCCc1ccccc1C(F)(F)F)c1cc(Cl)ccc1O [Compound 82] | 0.7 µM
36 | O=C(Nc1cc(Cl)ccc1OCCc1cccc(C(F)(F)F)c1)c1cc(Cl)ccc1O [Compound 83] | 0.8 µM
37 | O=C(Nc1cc(Cl)ccc1OCCc1ccc(Cl)cc1)c1cc(Cl)ccc1O [Compound 87] | 0.9 µM
38 | O=C(Nc1cc(OCCc2ccccc2)c(Cl)cc1Cl)c1cc(Cl)ccc1O [Compound 92] | 2 µM
39 | O=C(Nc1ccc(Cl)cc1)c1cc(Cl)ccc1O [Compound 93] | 4 µM
40 | O=C(Nc1cccc(Cl)c1)c1cc(Cl)ccc1O [Compound 94] | 3 µM
41 | O=C(Nc1cc(Cl)ccc1OCCc1ccc(C(F)(F)F)cc1)c1cc(Cl)ccc1O [Compound 99] | 1 µM
42 | CC(C)c1ccc(CCOc2ccc(Cl)cc2NC(=O)c2cc(Cl)ccc2O)cc1 [Compound 100] | 1 µM
43 | Cc1cc(C)c(OCCc2ccccc2)c(NC(=O)c2cc(Cl)ccc2O)c1 [Compound 101] | 4 µM
44 | CC(C)(C)c1ccc(OCCc2ccccc2)c(NC(=O)c2cc(Cl)ccc2O)c1 [Compound 102] | 2 µM
45 | CCC(COc1ccc(Cl)cc1NC(=O)c1cc(Cl)ccc1O)c1ccccc1 (stereo not drawn) [Compound 103] | 2 µM
46 | O=C(Nc1cc(C(F)(F)F)ccc1OCCc1ccccc1)c1cc(Cl)ccc1O [Compound 104] | 0.8 µM
47 | Cc1cc(C)cc(COc2cccc(NC(=O)c3cc(Cl)ccc3O)c2)c1 [Compound 105] | 8 µM
48 | O=C(Nc1cc(Cl)ccc1OCCc1ccc(F)cc1)c1cc(Cl)ccc1O [Compound 106] | 1 µM
49 | O=C(Nc1cc(Cl)ccc1OCCc1ccccc1F)c1cc(Cl)ccc1O [Compound 107] | 2 µM
50 | CN(C)c1ccc(CCOc2ccc(Cl)cc2NC(=O)c2cc(Cl)ccc2O)cc1 [Compound 108] | 3 µM
51 | O=C(Nc1cc(Cl)ccc1OCCc1cccc(Cl)c1)c1cc(Cl)ccc1O [Compound 109] | 1 µM

Next, values leading:

Row | EC50 | SMILES
52 | 12 µM | O=C(Nc1cccc(OCc2ccccc2)c1)c1cc(Cl)ccc1O [Compound 15]
53 | 8 µM | COc1ccccc1CCCOc1cccc(NC(=O)c2cc(Cl)ccc2O)c1 [Compound 16]
54 | 2 µM | O=C(Nc1cccc(OC2CCCC[C@H]2c2ccccc2)c1)c1cc(Cl)ccc1O (stereo partly drawn) [Compound 17]
55 | 10 µM | O=C(Nc1cccc(CCOc2ccccc2)c1)c1cc(Cl)ccc1O [Compound 18]
56 | 7 µM | CC(COc1cccc(NC(=O)c2cc(Cl)ccc2O)c1)c1ccccc1 (stereo not drawn) [Compound 19]
57 | 9 µM | O=C(c1ccccc1)c1cccc(NC(=O)c2cc(Cl)ccc2O)c1 [Compound 21]
58 | 24 µM | O=C(NCc1ccc(Oc2ccccc2)cc1)c1cc(Cl)ccc1O [Compound 26]
59 | 31 µM | O=C(Nc1cccc(NCc2ccccc2)c1)c1cc(Cl)ccc1O [Compound 28]
60 | 10 µM | O=C(Nc1cccc(OCCc2cccc(F)c2)c1)c1cc(Cl)ccc1O [Compound 35]
61 | 21 µM | O=C(Nc1cccc(CNc2ccccc2)c1)c1cc(Cl)ccc1O [Compound 36]
62 | 3 µM | CCC(COc1cccc(NC(=O)c2cc(Cl)ccc2O)c1)c1ccccc1 (stereo not drawn) [Compound 42]
63 | 5 µM | O=C(Nc1cccc(OCC2(c3ccccc3)CC2)c1)c1cc(Cl)ccc1O [Compound 44]
64 | 4 µM | Cc1ccc(NC(=O)c2cc(Cl)ccc2O)cc1OCCc1ccccc1 [Compound 45]
65 | 5 µM | O=C(Nc1cccc(OCCC2CCCCC2)c1)c1cc(Cl)ccc1O [Compound 46]
66 | 15 µM | Cc1ccccc1CCOc1cccc(NC(=O)c2cc(Cl)ccc2O)c1 [Compound 55]
67 | 15 µM | Cc1cccc(CCOc2cccc(NC(=O)c3cc(Cl)ccc3O)c2)c1 [Compound 57]
68 | 10 µM | Cc1ccc(CCOc2cccc(NC(=O)c3cc(Cl)ccc3O)c2)cc1 [Compound 59]
69 | 20 µM | O=C(Nc1ccc(OCCc2ccccc2)cc1)c1cc(Cl)ccc1O [Compound 63]
70 | 17 µM | O=C(Nc1cccc(OCc2ccc(Cl)cc2)c1)c1cc(Cl)ccc1O [Compound 65]
71 | 50 µM | O=C(NCc1cccc(OCCc2ccccc2)c1)c1cc(Cl)ccc1O [Compound 66]
72 | 50 µM | O=C(NCc1cccc(Oc2ccccc2)c1)c1cc(Cl)ccc1O [Compound 67]
73 | 4 µM | O=C(Nc1ccccc1OCCc1ccccc1)c1cc(Cl)ccc1O [Compound 80]
74 | 14 µM | Cc1ccccc1COc1cccc(NC(=O)c2cc(Cl)ccc2O)c1 [Compound 84]
75 | 6 µM | CC(C)c1ccc(COc2cccc(NC(=O)c3cc(Cl)ccc3O)c2)cc1 [Compound 85]
76 | 18 µM | O=C(NCCc1cccc(OCc2ccccc2)c1)c1cc(Cl)ccc1O [Compound 90]
77 | 6 µM | CC(Cc1ccccc1)Oc1cccc(NC(=O)c2cc(Cl)ccc2O)c1 (stereo not drawn) [Compound 95]
78 | 10 µM | O=C(Nc1cccc(OCCCc2ccccc2)c1)c1cc(Cl)ccc1O [Compound 96]
79 | 3 µM | O=C(Nc1ccc(OC2CCCC[C@H]2c2ccccc2)cc1)c1cc(Cl)ccc1O (stereo partly drawn) [Compound 97]
80 | 4 µM | O=C(Nc1cc(Cl)ccc1OC1CCCC[C@H]1c1ccccc1)c1cc(Cl)ccc1O (stereo partly drawn) [Compound 98]

same assay, conditions: Homo sapiens; LNCaP cells; flagged "Estimated": based on actual data at different concentrations

Row | SMILES | EC50
81 | CC(=O)Nc1cc(F)c(F)cc1C(=O)Nc1cccc(OCCc2ccccc2)c1 [Compound 7] | 30 µM
82 | O=C(Nc1cccc(OCc2ccc3c(c2)OCO3)c1)c1cc(Cl)ccc1O [Compound 86] | 30 µM

Now from value to molecule:

Row | EC50 | SMILES
83 | 20 µM | O=C(c1ccccc1)c1ccc(NC(=O)c2cc(Cl)ccc2O)cc1 [Compound 25]
84 | 30 µM | O=C(Nc1cccc(OCCc2ccccc2)c1)c1cc(Cl)ccc1O [Compound 29]
